The source made the active and inactive calls. No stated cut-off is given here; in the data, actives have a measured IC50 and inactives only a lower limit.
Experiments:
Assay type in all cases: functional
[1] = target: T1, Sentrin-specific protease 8 (Homo sapiens, UniProt Q96LD8); assay: SENP8 protease inhibitors, SAR follow-up, biochemical, luminescence (AID 504501)
T1 sequence (Q96LD8 whole entry): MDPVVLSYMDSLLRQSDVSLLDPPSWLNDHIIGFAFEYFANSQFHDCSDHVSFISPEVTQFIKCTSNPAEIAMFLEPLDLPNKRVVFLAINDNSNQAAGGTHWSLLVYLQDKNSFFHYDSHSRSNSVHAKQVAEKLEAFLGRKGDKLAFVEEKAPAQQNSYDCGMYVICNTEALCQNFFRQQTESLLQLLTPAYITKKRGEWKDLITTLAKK

[2] = target: T2, Sentrin-specific protease 7 (Homo sapiens, UniProt Q9BQF6); assay: SENP7 protease inhibitors, SAR follow-up, biochemical, luminescence (AID 504497)
T2 sequence (Q9BQF6 whole entry): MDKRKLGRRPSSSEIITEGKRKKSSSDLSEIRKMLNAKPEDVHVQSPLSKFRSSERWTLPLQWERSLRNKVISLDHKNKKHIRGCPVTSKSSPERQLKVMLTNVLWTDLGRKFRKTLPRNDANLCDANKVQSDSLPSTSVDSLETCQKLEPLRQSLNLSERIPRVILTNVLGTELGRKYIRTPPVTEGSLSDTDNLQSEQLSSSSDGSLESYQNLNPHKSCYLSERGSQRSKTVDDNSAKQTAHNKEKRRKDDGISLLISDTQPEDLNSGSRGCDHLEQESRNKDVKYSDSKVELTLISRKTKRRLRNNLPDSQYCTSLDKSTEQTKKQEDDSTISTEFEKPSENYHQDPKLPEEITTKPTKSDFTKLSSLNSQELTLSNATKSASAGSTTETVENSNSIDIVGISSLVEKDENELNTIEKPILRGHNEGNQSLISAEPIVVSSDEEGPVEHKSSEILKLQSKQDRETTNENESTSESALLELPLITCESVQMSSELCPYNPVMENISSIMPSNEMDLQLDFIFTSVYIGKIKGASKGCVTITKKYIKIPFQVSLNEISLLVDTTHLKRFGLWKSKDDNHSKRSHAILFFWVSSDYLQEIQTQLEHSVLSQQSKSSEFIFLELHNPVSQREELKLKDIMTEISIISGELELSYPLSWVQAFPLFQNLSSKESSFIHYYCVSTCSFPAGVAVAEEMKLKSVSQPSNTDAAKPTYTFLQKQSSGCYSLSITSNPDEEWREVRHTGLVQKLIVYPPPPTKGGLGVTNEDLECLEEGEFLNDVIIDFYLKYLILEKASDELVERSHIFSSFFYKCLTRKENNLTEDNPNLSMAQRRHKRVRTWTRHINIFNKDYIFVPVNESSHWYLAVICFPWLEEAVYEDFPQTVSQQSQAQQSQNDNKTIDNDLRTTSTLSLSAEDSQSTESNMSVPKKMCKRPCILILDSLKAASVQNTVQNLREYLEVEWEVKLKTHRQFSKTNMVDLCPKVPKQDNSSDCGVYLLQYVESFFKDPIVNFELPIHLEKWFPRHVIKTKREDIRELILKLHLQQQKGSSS

[3] = target: T3, Sentrin-specific protease 6 (Homo sapiens, UniProt Q9GZR1); assay: SAR Analysis of small molecule inhibitors of Sentrin-specific protease 6 (SENP6) using a Luminescent assay. [Related pubchem assays (depositor defined):AID2582, AID2599]
T3 sequence (Q9GZR1 whole entry): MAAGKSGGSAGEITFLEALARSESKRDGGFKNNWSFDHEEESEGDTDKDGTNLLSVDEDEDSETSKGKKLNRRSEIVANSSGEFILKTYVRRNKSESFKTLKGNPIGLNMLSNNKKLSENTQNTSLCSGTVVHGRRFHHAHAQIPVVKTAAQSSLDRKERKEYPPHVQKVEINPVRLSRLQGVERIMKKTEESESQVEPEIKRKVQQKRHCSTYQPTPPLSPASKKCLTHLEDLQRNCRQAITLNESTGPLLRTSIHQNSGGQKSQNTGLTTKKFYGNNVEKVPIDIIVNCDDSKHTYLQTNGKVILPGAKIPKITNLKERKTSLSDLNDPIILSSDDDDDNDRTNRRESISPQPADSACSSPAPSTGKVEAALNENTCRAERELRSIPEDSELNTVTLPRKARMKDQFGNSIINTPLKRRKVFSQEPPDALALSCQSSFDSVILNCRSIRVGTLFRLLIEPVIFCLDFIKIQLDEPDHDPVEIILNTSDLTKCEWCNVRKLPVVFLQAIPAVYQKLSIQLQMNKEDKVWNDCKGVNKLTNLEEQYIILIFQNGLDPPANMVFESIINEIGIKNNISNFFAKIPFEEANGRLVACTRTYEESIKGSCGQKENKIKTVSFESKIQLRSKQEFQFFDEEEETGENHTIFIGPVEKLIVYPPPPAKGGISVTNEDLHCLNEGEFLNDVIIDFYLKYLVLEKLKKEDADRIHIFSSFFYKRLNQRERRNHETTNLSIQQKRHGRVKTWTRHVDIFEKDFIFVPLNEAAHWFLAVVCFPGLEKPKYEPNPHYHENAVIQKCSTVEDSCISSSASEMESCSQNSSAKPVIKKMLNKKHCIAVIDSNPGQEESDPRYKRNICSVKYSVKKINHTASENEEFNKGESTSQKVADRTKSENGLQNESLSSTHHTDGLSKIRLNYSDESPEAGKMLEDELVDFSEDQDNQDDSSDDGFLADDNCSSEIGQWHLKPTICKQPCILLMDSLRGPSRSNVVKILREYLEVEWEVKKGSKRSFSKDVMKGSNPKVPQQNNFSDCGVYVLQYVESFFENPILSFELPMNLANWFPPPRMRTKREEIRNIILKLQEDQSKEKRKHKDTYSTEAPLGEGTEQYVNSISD

[4] = target: T4, Caspase-3 (Homo sapiens, UniProt P42574); assay: SAR Analysis of small molecule inhibitors of Sentrin-specific proteases (SENPs) using a Caspase-3 Selectivity assay. [Related pubchem assays (depositor defined):AID2540, AID2599, AID434973, AID489001]
T4 sequence (P42574 whole entry): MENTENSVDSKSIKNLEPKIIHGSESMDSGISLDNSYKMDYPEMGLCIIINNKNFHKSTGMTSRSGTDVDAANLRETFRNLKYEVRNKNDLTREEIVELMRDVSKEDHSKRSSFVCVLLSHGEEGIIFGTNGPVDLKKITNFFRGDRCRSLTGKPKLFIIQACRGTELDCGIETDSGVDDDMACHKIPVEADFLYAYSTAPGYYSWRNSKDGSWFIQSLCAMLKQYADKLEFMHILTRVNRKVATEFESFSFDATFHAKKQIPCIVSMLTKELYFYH

Measured: IC50

CN(C)CCN(C(=O)c1ccc(S(=O)(=O)N2CCCCCC2)cc1)c1nc2cc3c(cc2s1)OCCO3
inactive: [1] > 99 µM | [2] > 99 µM | [3] > 99 µM | [4] > 99 µM

Cc1nn(CC(=O)Nc2sc3c(c2C#N)CCCC3)c(C)c1I
inactive: [1] > 99 µM | [2] > 99 µM | [3] > 99 µM | [4] > 99 µM
